Data published in US11384099B2, “Pyrazolopyridinone compounds” (Janssen Pharmaceutica NV, priority 2017, dated 2022).

Columns and labels:
[1] = system: NIH/3T3 cells transfected with control vector (MOCK); experiment: NIH/3T3 mock cell proliferation assay (CTG, counter assay); format: cell-based; conditions: Mus musculus, NIH3T3; 72-hr incubation, CellTiter Glo; counter assay for general toxicity
Method: NIH/3T3 Mock Cell Proliferation Assay
(§1) In day 1, 90 μL of cell suspension (NIH/3T3 cells transfected with the same control vector as in the above two proliferation assays) (total 30,000 cells per well in growth medium (DMEM containing 1% Glutamax, 10% FBS and 1% Pen/Strep)) was seeded in a 96-well plate and then incubated overnight at 37° C. and 5% CO2. In day 2, 10 μL of growth medium containing 10-fold stock solution of testing compound was added into cell cultures (9 dose points with 3× serial dilution, starting with 30 μM, 0.3% DMSO final). After 72-hr incubation at 37° C. and 5% CO2, in day 5 a volume of 50 μL CellTiter Glo (CTG) reagent was added into cell-containing 96-well plate and the plate was incubated at room temperature for 10 minutes before RLUs (relative light unit) were measured on a microplate reader with luminescence detection module. The RLU value was normalized to survival % and concentration-response curve was plotted using Prism to calculate IC50 (M), pIC50 (−log IC50) and HillSlope value.

[2] = system: NIH/3T3 cells overexpressing FGFR3 WT-TACC3 fusion protein; experiment: NIH/3T3 FGFR3 WT-TACC3 cellular phospho-ERK assay (in vitro PD assay); format: cell-based; conditions: Mus musculus, NIH3T3; 1-hr incubation, AlphaLISA SureFire Ultra p-ERK1/2; read-out: NIH/3T3 FGFR3 WT-TACC3 pERK (IC50)
Method: NIH/3T3 FGFR3 WT-TACC3 Cellular Phospho-ERK Assay (In Vitro PD Assay)
(§2) 50 uL of cell suspension (NIH/3T3 cells overexpressing FGFR3 WT-TACC3 fusion protein) (total 10,000 cells per well in growth medium (DMEM containing 1% Glutamax, 10% FBS and 1% Pen/Strep)) was seeded in a 384-well plate. After overnight incubation at 37° C. and 5% CO2, 5.5 μL of growth medium containing 10× testing compound was added into cell cultures (10 dose points with 4× serial dilution, starting with 10 μM, 0.1% DMSO final). After 1-hr incubation at 37° C. and 5% CO2, the medium was depleted and AlphaLISA SureFire Ultra p-ERK1/2 (Thr202/Tyr204) Assay Kit (from PerkinElmer) was applied for phospho-ERK level detection according to the kit instructions. The RFUs (relative fluorescence units were measured on EnVision microplate reader (ex. 680 nm, em. 615 nm) and concentration-response curve was plotted using Prism to calculate IC50 (M), pIC50 (−log IC50) and HillSlope value.

[3] = system: NIH/3T3 cells overexpressing FGFR3 V555M-TACC3 fusion protein; experiment: NIH/3T3 FGFR3 V555M-TACC3 cellular phospho-ERK assay (in vitro PD assay); format: cell-based; conditions: Mus musculus, NIH3T3; 1-hr incubation, AlphaLISA SureFire Ultra p-ERK1/2; read-out: NIH/3T3 FGFR3 V555M-TACC3 pERK (IC50)
Method: NIH/3T3 FGFR3 V555M-TACC3 Cellular Phospho-ERK Assay (In Vitro PD Assay)
as §2, with “μL” for “uL”, “V555M-TACC3” for “WT-TACC3”

[4] = molecular target: T1, human FGFR3 wild type enzyme (cytoplasmic domain) (Homo sapiens, UniProt P22607); experiment: FGFR3 wild type mobility shift assay (enzymatic assay, Caliper); format: biochemical; conditions: 75 μM ATP, 50 minutes at 30° C.
T1 construct: human FGFR3 wild type enzyme (cytoplasmic domain, from Cama Biosciences); purchased Carna Biosciences
Method: FGFR3 Wild Type Mobility Shift Assay (Enzymatic Assay)
(§3) In a final reaction volume of 25 μL, 0.04 ng/μL human FGFR3 wild type enzyme (cytoplasmic domain, from Cama Biosciences) was incubated with 75 μM ATP, 1 μM FL-peptide 30 substrate and 250 nL of testing compound (1% DMSO final) in assay buffer (100 mM HEPES pH 7.4, 10 mM MgCl2, 0.003% Brij35, 1 mM DTT). After incubation for 50 minutes at 30° C. the reaction was stopped with 10 μL of 0.5M EDTA pH 8.0, and then L of reaction mixture was transferred to reading plate and measured on Caliper EZ reader II.

[5] = molecular target: T2, human FGFR3 V555M enzyme (cytoplasmic domain carrying V555M mutation) (Homo sapiens, UniProt P22607, V555M); experiment: FGFR3 V555M mobility shift assay (enzymatic assay, Caliper); format: biochemical; conditions: 30 μM ATP, 45 minutes at 30° C.
T2 construct: cytoplasmic domain carrying V555M mutation, from Carna Biosciences; purchased Carna Biosciences
Method: FGFR3 V555M Mobility Shift Assay (Enzymatic Assay)
as §3, with “FGFR3 V555M” for “FGFR3 wild type”, “(cytoplasmic domain carrying V555M mutation,” for “(cytoplasmic domain,”, “from Carna” for “from Cama”, “with 30” for “with 75”, “for 45” for “for 50”

[6] = molecular target: T3, NIH/3T3 cells overexpressing FGFR3 WT-TACC3 fusion protein (Homo sapiens, UniProt P22607); experiment: NIH/3T3 FGFR3 WT-TACC3 cell proliferation assay (CTG); format: cell-based; conditions: 72-hr incubation, CellTiter Glo; read-out: NIH/3T3 FGFR3 WT-TACC3 CTG (IC50)
T3 construct: NIH/3T3 FGFR3 WT-TACC3 CTG (IC50); other: 72-hr incubation, CellTiter Glo; fused on or other part: C-terminal coiled-coil part of TACC3 (part of the key, as a fusion known from patients); Q9Y6A5 (Transforming acidic coiled-coil-containing protein 3)
Method: NIH/3T3 FGFR3 WT-TACC3 Cell Proliferation Assay
as §1, with “cells overexpressing FGFR3 WT-TACC3 fusion protein)” for “cells transfected with the same control vector as in the above two proliferation assays)”, “with 4×” for “with 3×”, “with 10” for “with 30”, “μM, 0.1%” for “μM, 0.3%”

T2 sequence (P22607 397-806 V555M limits assumed): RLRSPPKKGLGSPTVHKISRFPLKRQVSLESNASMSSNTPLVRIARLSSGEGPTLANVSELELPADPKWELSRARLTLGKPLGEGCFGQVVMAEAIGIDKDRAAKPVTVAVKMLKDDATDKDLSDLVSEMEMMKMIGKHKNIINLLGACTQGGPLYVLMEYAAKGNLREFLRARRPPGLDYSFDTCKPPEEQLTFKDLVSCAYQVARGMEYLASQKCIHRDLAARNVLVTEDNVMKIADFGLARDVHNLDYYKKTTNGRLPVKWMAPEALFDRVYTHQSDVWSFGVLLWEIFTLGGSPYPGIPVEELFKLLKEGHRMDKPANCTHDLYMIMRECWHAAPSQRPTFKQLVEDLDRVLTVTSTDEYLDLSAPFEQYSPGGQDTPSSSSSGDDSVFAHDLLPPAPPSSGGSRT
T3 sequence (P22607 whole entry, change not shown, the tested form may be a part): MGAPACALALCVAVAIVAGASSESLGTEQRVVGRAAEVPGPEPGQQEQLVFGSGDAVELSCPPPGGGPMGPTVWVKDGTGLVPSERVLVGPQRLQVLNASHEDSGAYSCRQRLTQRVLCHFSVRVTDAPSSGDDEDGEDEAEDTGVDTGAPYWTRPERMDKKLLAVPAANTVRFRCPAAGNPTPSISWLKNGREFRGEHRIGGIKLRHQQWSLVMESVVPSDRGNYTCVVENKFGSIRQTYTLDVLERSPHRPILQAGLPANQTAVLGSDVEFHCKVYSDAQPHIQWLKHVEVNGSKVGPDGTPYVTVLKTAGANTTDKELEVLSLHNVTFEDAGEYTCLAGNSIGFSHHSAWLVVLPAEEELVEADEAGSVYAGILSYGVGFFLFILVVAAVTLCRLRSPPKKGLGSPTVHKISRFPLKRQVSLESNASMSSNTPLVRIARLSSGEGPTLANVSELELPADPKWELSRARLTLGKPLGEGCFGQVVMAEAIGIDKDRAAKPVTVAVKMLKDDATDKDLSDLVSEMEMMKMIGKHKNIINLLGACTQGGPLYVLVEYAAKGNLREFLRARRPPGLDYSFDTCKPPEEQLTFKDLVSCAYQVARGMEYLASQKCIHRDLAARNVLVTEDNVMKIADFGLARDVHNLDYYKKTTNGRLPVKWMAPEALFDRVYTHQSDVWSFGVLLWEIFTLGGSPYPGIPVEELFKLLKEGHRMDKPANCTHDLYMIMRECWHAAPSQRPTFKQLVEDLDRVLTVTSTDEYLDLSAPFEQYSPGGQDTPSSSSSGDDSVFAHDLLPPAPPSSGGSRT
T1 sequence (P22607 397-806 limits assumed): as the sequence (P22607 397-806 V555M limits assumed) above, with M159V counted along it

SMILES	IC50 [4]	IC50 [5]	GI50 [6]	IC50 [1]	IC50 [2]	IC50 [3]
COc1ccc2nc(-c3c(N[C@@H](C)c4ncccn4)c4nn(C)cc4[nH]c3=O)[nH]c2c1 (single isomer, unassigned) [Compound 1, (S*)-6-(6-Methoxy-1H-benzo[d]imidazol-2-yl)-2-methyl-7-((1-(pyrimidin-2-yl)ethyl)-amino)-2H-pyrazolo[4,3-b]pyridin-5 (4H)-one]				987 nM	3.2 nM	3.05 nM
C[C@H](Nc1c(-c2nc3ccc(F)cc3[nH]2)c(=O)[nH]c2cn(C)nc12)c1ncccn1 [Compound 28, (S)-6-(6-Fluoro-1H-benzo[d]imidazol-2-yl)-2-methyl-7-((1-(pyrimidin-2-yl)ethyl)amino)-2H-pyrazolo[4,3-b]pyridin-5 (4H)-one]	2.15 nM	0.595 nM	23.3 nM	2030 nM		
CCOc1ccc2nc(-c3c(N[C@@H](C)c4ncccn4)c4nn(CC)cc4[nH]c3=O)[nH]c2c1 [Compound 50, (S)-6-(6-ethoxy-1H-benzo[d]imidazol-2-yl)-2-ethyl-7-((1-(pyrimidin-2-yl)ethyl)amino)-2,4-dihydro-5H-pyrazolo[4,3-b]pyridin-5-one]	2.96 nM	0.576 nM		1100 nM		
CCn1cc2[nH]c(=O)c(-c3nc4cc(OC)c(OC)cc4[nH]3)c(N[C@@H](C)c3ccccn3)c2n1 [Compound 51, (S)-6-(5,6-dimethoxy-1H-benzo[d]imidazol-2-yl)-2-ethyl-7-((1-(pyridin-2-yl)ethyl)-amino)-2,4-dihydro-5H-pyrazolo[4,3-b]pyridin-5-one]	4.43 nM	0.613 nM	30.2 nM	1130 nM		
CCOc1cc2nc(-c3c(N[C@@H](C)c4ncccn4)c4nn(CC)cc4[nH]c3=O)[nH]c2cc1OCC [Compound 52, (S)-6-(5,6-diethoxy-1H-benzo[d]imidazol-2-yl)-2-ethyl-7-((1-(pyrimidin-2-yl)ethyl)-amino)-2H-pyrazolo[4,3-b]pyridin-5 (4H)-one]	0.853 nM	0.281 nM		653 nM	5.66 nM	6.67 nM
CCOc1cc2nc(-c3c(N[C@@H](C)c4ncccn4)c4nn(C)cc4[nH]c3=O)[nH]c2cc1OCC [Compound 53, (S)-6-(5,6-diethoxy-1H-benzo[d]imidazol-2-yl)-2-methyl-7-((1-(pyrimidin-2-yl)ethyl)-amino)-2,4-dihydro-5H-pyrazolo[4,3-b]pyridin-5-one]	0.554 nM	0.298 nM		535 nM		

Continued by falling IC50 [4], values first:

IC50 [4]	IC50 [5]	GI50 [6]	SMILES	IC50 [1]	IC50 [2]	IC50 [3]
6.21 nM	1.78 nM	34.4 nM	CCn1cc2[nH]c(=O)c(-c3nc4c(OC)cc(OC)cc4[nH]3)c(N[C@@H](C)c3ncccn3)c2n1 [Compound 31, (S)-6-(4,6-dimethoxy-1H-benzo[d]imidazol-2-yl)-2-ethyl-7-((1-(pyrimidin-2-yl)ethyl)-amino)-2H-pyrazolo[4,3-b]pyridin-5 (4H)-one]	1940 nM		
2.16 nM	0.407 nM	12.5 nM	CCC(Nc1c(-c2nc3cc(OC)c(OC)cc3[nH]2)c(=O)[nH]c2cn(C)nc12)c1ncccn1 (single isomer, unassigned) [Compound 42, (S*)-6-(5,6-dimethoxy-1H-benzo[d]imidazol-2-yl)-2-methyl-7-((1-(pyrimidin-2-yl)-propyl)amino)-2H-pyrazolo[4,3-b]pyridin-5 (4H)-one]	591 nM		
1.64 nM	0.562 nM		CCn1cc2[nH]c(=O)c(-c3nc4ccc(OCCOC)cc4[nH]3)c(N[C@@H](C)c3ncccn3)c2n1 [Compound 54, (S)-2-ethyl-6-(6-(2-methoxyethoxy)-1H-benzo[d]imidazol-2-yl)-7-((1-(pyrimidin-2-yl)-ethyl)amino)-2H-pyrazolo[4,3-b]pyridin-5 (4H)-one]	689 nM		
1.56 nM	0.296 nM		COc1cc2nc(-c3c(N[C@@H](C)c4ccccn4)c4nn(C)cc4[nH]c3=O)[nH]c2cc1OC [Compound 56, (S)-6-(5,6-dimethoxy-1H-benzo[d]imidazol-2-yl)-2-methyl-7-((1-(pyridin-2-yl)ethyl)-amino)-2H-pyrazolo[4,3-b]pyridin-5 (4H)-one]	857 nM	7.92 nM	5.16 nM
0.98 nM	0.568 nM	18.4 nM	CCn1cc2[nH]c(=O)c(-c3nc4cc(OC)c(OCCOC)cc4[nH]3)c(N[C@@H](C)c3ncccn3)c2n1 [Compound 38, (S)-2-ethyl-6-(5-methoxy-6-(2-methoxyethoxy)-1H-benzo[d]imidazol-2-yl)-7-((1-(pyrimidin-2-yl)ethyl)amino)-2H-pyrazolo[4,3-b]pyridin-5 (4H)-one]	532 nM		
0.327 nM	0.183 nM		CCOc1cc2[nH]c(-c3c(N[C@@H](C)c4ncccn4)c4nn(C)cc4[nH]c3=O)nc2cc1OC [Compound 7, (S)-6-(6-ethoxy-5-methoxy-1H-benzo[d]imidazol-2-yl)-2-methyl-7-((1-(pyrimidin-2-yl)ethyl)amino)-2,4-dihydro-5H-pyrazolo[4,3-b]pyridin-5-one]	713 nM	3.64 nM	2.79 nM
